According to PubChem BioAssay AID1963854 (Molecular Pharmacology Branch, DTP, NCI, 2024):

System: 186277-243-T-J2-PDC complex spheroid viability
Assay: Anticancer human tumor 186277-243-T-J2-PDC patient-derived colon adenocarcinoma cell line growth inhibition [POLQ]
Settings: for IC50: curve of first compound; for viability, T/C: stronger effect = lower value
Method in brief: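 Three-cell-type spheroids modelling solid tumor plus stroma served as the readout system; POL inhibitors were tested individually and in combination, concentration ranges set by clinical Cmax where known.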

[1] = second compound 0.0316 µM, first compound 0.0316 µM
[2] = second compound 0.0316 µM, first compound 0.1 µM
[3] = second compound 0.0316 µM, first compound 0.316 µM
[4] = second compound 0.0316 µM, first compound 1 µM
[5] = second compound 0.0316 µM, first compound 3.16 µM
[6] = second compound 0.0316 µM, first compound 10 µM
[7] = second compound 0.1 µM, first compound 0.0316 µM
[8] = second compound 0.1 µM, first compound 0.1 µM
[9] = second compound 0.1 µM, first compound 0.316 µM
[10] = second compound 0.1 µM, first compound 1 µM
[11] = second compound 0.1 µM, first compound 3.16 µM
[12] = second compound 0.1 µM, first compound 10 µM
[13] = second compound 0.316 µM, first compound 0.0316 µM
[14] = second compound 0.316 µM, first compound 0.1 µM
[15] = second compound 0.316 µM, first compound 0.316 µM
[16] = second compound 0.316 µM, first compound 1 µM
[17] = second compound 0.316 µM, first compound 3.16 µM
[18] = second compound 0.316 µM, first compound 10 µM
[19] = second compound 1 µM, first compound 0.0316 µM
[20] = second compound 1 µM, first compound 0.1 µM
[21] = second compound 1 µM, first compound 0.316 µM
[22] = second compound 1 µM, first compound 1 µM
[23] = second compound 1 µM, first compound 3.16 µM
[24] = second compound 1 µM, first compound 10 µM
[25] = second compound 3.16 µM, first compound 0.0316 µM
[26] = second compound 3.16 µM, first compound 0.1 µM
[27] = second compound 3.16 µM, first compound 0.316 µM
[28] = second compound 3.16 µM, first compound 1 µM
[29] = second compound 3.16 µM, first compound 3.16 µM
[30] = second compound 3.16 µM, first compound 10 µM
[31] = second compound 10 µM, first compound 0.0316 µM
[32] = second compound 10 µM, first compound 0.1 µM
[33] = second compound 10 µM, first compound 0.316 µM
[34] = second compound 10 µM, first compound 1 µM
[35] = second compound 10 µM, first compound 3.16 µM
[36] = second compound 10 µM, first compound 10 µM
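Note: spheroids exposed to compounds for seven days.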
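Throughout, for viability, T/C: 100% = DMSO vehicle control viability.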

CCc1cc2c(N3CCc4c(cc(Cn5ccnc5)cc4-c4cn(C)nc4C(F)(F)F)C3=O)cc(C)nc2c(OC)n1 + COC1C(OC(N)=O)C(O)C(Oc2ccc3c(O)c(NC(=O)c4ccc(O)c(CC=C(C)C)c4)c(=O)oc3c2C)OC1(C)C
IC50 (second compound 0.0316 µM): > 10 µM | IC50 (second compound 0.1 µM): > 10 µM | IC50 (second compound 0.316 µM): > 10 µM | IC50 (second compound 1 µM): > 10 µM | IC50 (second compound 3.16 µM): > 10 µM | IC50 (second compound 10 µM): > 10 µM | viability, T/C [1]: 100% | viability, T/C [2]: 91.7% | viability, T/C [3]: 101% | viability, T/C [4]: 80.4% | viability, T/C [5]: 80.5% | viability, T/C [6]: 77.4% | viability, T/C [7]: 88.1% | viability, T/C [8]: 92.2% | viability, T/C [9]: 92.7% | viability, T/C [10]: 96.9% | viability, T/C [11]: 100% | viability, T/C [12]: 80.4% | viability, T/C [13]: 95.6% | viability, T/C [14]: 101% | viability, T/C [15]: 101% | viability, T/C [16]: 93.5% | viability, T/C [17]: 85.3% | viability, T/C [18]: 84.4% | viability, T/C [19]: 99.1% | viability, T/C [20]: 101% | viability, T/C [21]: 111% | viability, T/C [22]: 104% | viability, T/C [23]: 104% | viability, T/C [24]: 73.7% | viability, T/C [25]: 93.4% | viability, T/C [26]: 96.6% | viability, T/C [27]: 86.3% | viability, T/C [28]: 86.2% | viability, T/C [29]: 98.9% | viability, T/C [30]: 72.4% | viability, T/C [31]: 96.5% | viability, T/C [32]: 102% | viability, T/C [33]: 104% | viability, T/C [34]: 107% | viability, T/C [35]: 99.2% | viability, T/C [36]: 86.1%

CCc1cc2c(N3CCc4c(cc(Cn5ccnc5)cc4-c4cn(C)nc4C(F)(F)F)C3=O)ccnc2c(OC)n1 + COC1C(OC(N)=O)C(O)C(Oc2ccc3c(O)c(NC(=O)c4ccc(O)c(CC=C(C)C)c4)c(=O)oc3c2C)OC1(C)C
IC50 (second compound 0.0316 µM): > 10 µM | IC50 (second compound 0.1 µM): > 10 µM | IC50 (second compound 0.316 µM): > 10 µM | IC50 (second compound 1 µM): > 10 µM | IC50 (second compound 3.16 µM): > 10 µM | IC50 (second compound 10 µM): > 10 µM | viability, T/C [1]: 94.6% | viability, T/C [2]: 94% | viability, T/C [3]: 116% | viability, T/C [4]: 87.8% | viability, T/C [5]: 92.6% | viability, T/C [6]: 74.9% | viability, T/C [7]: 97.5% | viability, T/C [8]: 95.2% | viability, T/C [9]: 111% | viability, T/C [10]: 104% | viability, T/C [11]: 86% | viability, T/C [12]: 74.3% | viability, T/C [13]: 83.3% | viability, T/C [14]: 105% | viability, T/C [15]: 98% | viability, T/C [16]: 87.8% | viability, T/C [17]: 89.7% | viability, T/C [18]: 73.3% | viability, T/C [19]: 94.1% | viability, T/C [20]: 103% | viability, T/C [21]: 86.5% | viability, T/C [22]: 106% | viability, T/C [23]: 107% | viability, T/C [24]: 74.8% | viability, T/C [25]: 107% | viability, T/C [26]: 100% | viability, T/C [27]: 99.1% | viability, T/C [28]: 93.1% | viability, T/C [29]: 89.1% | viability, T/C [30]: 75.5% | viability, T/C [31]: 101% | viability, T/C [32]: 99.7% | viability, T/C [33]: 107% | viability, T/C [34]: 101% | viability, T/C [35]: 109% | viability, T/C [36]: 83.6%

COc1cc2cc(C(=O)CCC(=O)O)sc2cc1OC + COC1C(OC(N)=O)C(O)C(Oc2ccc3c(O)c(NC(=O)c4ccc(O)c(CC=C(C)C)c4)c(=O)oc3c2C)OC1(C)C
IC50 (second compound 0.0316 µM): > 10 µM | IC50 (second compound 0.1 µM): > 10 µM | IC50 (second compound 0.316 µM): > 10 µM | IC50 (second compound 1 µM): > 10 µM | IC50 (second compound 3.16 µM): > 10 µM | IC50 (second compound 10 µM): > 10 µM | viability, T/C [1]: 110% | viability, T/C [2]: 99.3% | viability, T/C [3]: 101% | viability, T/C [4]: 99.2% | viability, T/C [5]: 106% | viability, T/C [6]: 96.6% | viability, T/C [7]: 98.3% | viability, T/C [8]: 88% | viability, T/C [9]: 103% | viability, T/C [10]: 101% | viability, T/C [11]: 103% | viability, T/C [12]: 103% | viability, T/C [13]: 102% | viability, T/C [14]: 102% | viability, T/C [15]: 93.6% | viability, T/C [16]: 99.5% | viability, T/C [17]: 98.1% | viability, T/C [18]: 120% | viability, T/C [19]: 111% | viability, T/C [20]: 99.1% | viability, T/C [21]: 109% | viability, T/C [22]: 106% | viability, T/C [23]: 110% | viability, T/C [24]: 103% | viability, T/C [25]: 89.5% | viability, T/C [26]: 108% | viability, T/C [27]: 100% | viability, T/C [28]: 98.9% | viability, T/C [29]: 105% | viability, T/C [30]: 114% | viability, T/C [31]: 106% | viability, T/C [32]: 111% | viability, T/C [33]: 110% | viability, T/C [34]: 117% | viability, T/C [35]: 105% | viability, T/C [36]: 101%

COc1ccc([C@@H](O)c2cc(-c3ncnc4cc(N5CCOCC5)ccc34)c(F)cc2Cl)nn1 + COC1C(OC(N)=O)C(O)C(Oc2ccc3c(O)c(NC(=O)c4ccc(O)c(CC=C(C)C)c4)c(=O)oc3c2C)OC1(C)C
IC50 (second compound 0.0316 µM): 6.3 µM | IC50 (second compound 0.1 µM): 5.61 µM | IC50 (second compound 0.316 µM): 5.55 µM | IC50 (second compound 1 µM): 6.16 µM | IC50 (second compound 3.16 µM): 5.34 µM | IC50 (second compound 10 µM): 5.67 µM | viability, T/C [1]: 102% | viability, T/C [2]: 97.2% | viability, T/C [3]: 109% | viability, T/C [4]: 95.2% | viability, T/C [5]: 79% | viability, T/C [6]: 30.7% | viability, T/C [7]: 103% | viability, T/C [8]: 92.2% | viability, T/C [9]: 106% | viability, T/C [10]: 99.2% | viability, T/C [11]: 72.6% | viability, T/C [12]: 27.1% | viability, T/C [13]: 102% | viability, T/C [14]: 108% | viability, T/C [15]: 108% | viability, T/C [16]: 110% | viability, T/C [17]: 71.1% | viability, T/C [18]: 27.9% | viability, T/C [19]: 90.9% | viability, T/C [20]: 101% | viability, T/C [21]: 113% | viability, T/C [22]: 110% | viability, T/C [23]: 78% | viability, T/C [24]: 29.7% | viability, T/C [25]: 106% | viability, T/C [26]: 103% | viability, T/C [27]: 108% | viability, T/C [28]: 116% | viability, T/C [29]: 70% | viability, T/C [30]: 26.1% | viability, T/C [31]: 108% | viability, T/C [32]: 101% | viability, T/C [33]: 109% | viability, T/C [34]: 101% | viability, T/C [35]: 72.6% | viability, T/C [36]: 28%
